Source: patent publication US8952024B2, “Herbicidal pyrimidone derivatives” (E I du Pont de Nemours and Company, priority 2009, dated 2015)

Key:
Type in all cases: in vivo
[1] = tested on: windgrass (Apera spica-venti); assay: Test B postemergence plant response; details: Postemergence, scale 0 (no effect) to 100 (complete control)
Method in brief: (§1)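 Visual ratings from 0 (no effect) to 100 (complete control), made against controls 13–15 days after treatment, kept in a greenhouse. Compounds were applied postemergence to potted plants at the 1- to 4-leaf stage (2–18 cm).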

[2] = tested on: canarygrass (Phalaris minor); assay: Test B postemergence plant response; details: Postemergence
Method in brief: as §1

[3] = tested on: chickweed (Stellaria media); assay: Test B postemergence plant response; details: Postemergence
Method in brief: as §1

[4] = tested on: winter barley (Hordeum vulgare); assay: Test B postemergence plant response; details: Postemergence
Method in brief: as §1

[5] = tested on: giant foxtail (Setaria faberii); assay: Test B pre-/postemergence plant response
Source text: (§2) Seeds of plant species selected from blackgrass (Alopecurus myosuroides), downy bromegrass (Bromus tectorum), green foxtail (Setaria viridis), Italian ryegrass (Lolium multiflorum), wheat (Triticum aestivum), wild oat (Avena fatua), deadnettle (henbit deadnettle, Lamium amplexicaule), galium (catchweed bedstraw, Galium aparine), bermudagrass (Cynodon dactylon), Surinam grass (Brachiaria decumbens), cocklebur (Xanthium strumarium), corn (Zea mays), large crabgrass (Digitaria sanguinalis), woolly cupgrass (Eriochloa villosa), giant foxtail (Setaria faberii), goosegrass (Eleusine indica), johnsongrass (Sorghum halepense), kochia (Kochia scoparia), lambsquarters (Chenopodium album), morningglory (Ipomoea coccinea), nightshade (eastern black nightshade, Solanum ptycanthum), yellow nutsedge (Cyperus esculentus), pigweed (Amaranthus retroflexus), ragweed (common ragweed, Ambrosia elatior), Russian thistle (Salsola kali), soybean (Glycine max), sunflower (common oilseed sunflower, Helianthus annuus) and velvetleaf (Abutilon theophrasti) were planted into a blend of loam soil and sand and treated preemergence with test compounds formulated in a non-phytotoxic solvent mixture which included a surfactant.
(§3) At the same time, plants selected from these crop and weed species and also winter barley (Hordeum vulgare), canarygrass (Phalaris minor), chickweed (Stellaria media) and windgrass (Apera spica-venti) were planted in pots containing Redi-Earth® planting medium (Scotts Company, 14111 Scottslawn Road, Marysville, Ohio 43041) comprising spaghnum peat moss, vermiculite, wetting agent and starter nutrients and treated with postemergence applications of some of the test chemicals formulated in the same manner. Plants ranged in height from 2 to 18 cm (1- to 4-leaf stage) for postemergence treatments.
(§4) Treated plants and controls were maintained in a greenhouse for 13 to 15 days, after which time all treated plants were visually evaluated and compared to controls. Plant response ratings, summarized in Table B, are based on a scale of 0 to 100 where 0 is no effect and 100 is complete control. A dash (-) response means no test result.

wild oat (Avena fatua) = assay: Test B pre-/postemergence plant response
Source text: as §2, §3, §4

[6] = tested on: morningglory (Ipomoea coccinea); assay: Test B pre-/postemergence plant response
Source text: as §2, §3, §4

[7] = tested on: bermudagrass (Cynodon dactylon); assay: Test B pre-/postemergence plant response
Source text: as §2, §3, §4

[8] = tested on: cocklebur (Xanthium strumarium); assay: Test B pre-/postemergence plant response
Source text: as §2, §3, §4

corn (Zea mays) = assay: Test B pre-/postemergence plant response
Source text: as §2, §3, §4

[9] = tested on: johnsongrass (Sorghum halepense); assay: Test B pre-/postemergence plant response
Source text: as §2, §3, §4

soybean (Glycine max) = assay: Test B pre-/postemergence plant response
Source text: as §2, §3, §4

kochia (Kochia scoparia) = assay: Test B pre-/postemergence plant response; details: Postemergence; for Plant response rating, Kochia: scale 0 (no effect) to 100 (complete control)
Source text: as §2, §3, §4

[10] = tested on: blackgrass (Alopecurus myosuroides); assay: Test B pre-/postemergence plant response
Source text: as §2, §3, §4

[11] = 125 g ai/ha, visual rating after 13 to 15 days
[12] = 31 g ai/ha, scale 0 to 100 (0 no effect, 100 complete control)
[13] = 62 g ai/ha, scale 0 (no effect) to 100 (complete control), 13 to 15 days
[14] = 125 g ai/ha, visual rating after 13 to 15 days, scale 0 (no effect) to 100 (complete control)
[15] = 250 g ai/ha, Preemergence, 0 to 100 scale
[16] = Postemergence, 31 g ai/ha, scale 0 to 100 (0 no effect, 100 complete control)
[17] = Postemergence, 62 g ai/ha, scale 0 (no effect) to 100 (complete control), 13 to 15 days
[18] = Postemergence, 125 g ai/ha, visual rating after 13 to 15 days, scale 0 (no effect) to 100 (complete control)
[19] = Postemergence, 250 g ai/ha, scale 0 to 100
[20] = Preemergence, 31 g ai/ha, scale 0 to 100 (0 no effect, 100 complete control)
[21] = Preemergence, 62 g ai/ha, scale 0 to 100 (0 no effect, 100 complete control)
[22] = Preemergence, 125 g ai/ha, 0 to 100 scale

## Cc1cc(C)cc(-n2c(-c3ccccc3)ncc(C(=O)C3=C(O)CCCC3=O)c2=O)c1 [Compound 33]
[1]; 62 g ai/ha, 13 to 15 days
  Plant response rating, Windgrass: 25
[1]; [11]
  Plant response rating, Windgrass: 30
[2]; [12]
  Plant response rating, Canarygrass: 0
[2]; [13]
  Plant response rating, Canarygrass: 0
[2]; [14]
  Plant response rating, Canarygrass: 5
[2]; 250 g ai/ha, scale 0 to 100
  Canarygrass plant response rating: 5
[3]; [12]
  Plant response rating, Chickweed: 80
[3]; [13]
  Plant response rating, Chickweed: 98
[3]; [14]
  Plant response rating, Chickweed: 100
[3]; 250 g ai/ha, scale 0 to 100
  Chickweed plant response rating: 100
[4]; [12]
  Plant response rating, Barley: 0
[4]; [13]
  Plant response rating, Barley: 0
[4]; [14]
  Plant response rating, Barley: 0
[4]; 250 g ai/ha, scale 0 to 100
  Barley plant response rating: 0
[5]; [15]
  Plant response rating, Foxtail, Giant: 98
[5]; [16]
  Plant response rating, Foxtail, Giant: 75
[5]; [17]
  Plant response rating, Foxtail, Giant: 80
[5]; [18]
  Plant response rating, Foxtail, Giant: 85
[5]; [19]
  Foxtail, Giant plant response rating: 95
[5]; [20]
  Plant response rating, Foxtail, Giant: 10
[5]; [21]
  Plant response rating, Foxtail, Giant: 45
[5]; [22]
  Foxtail, Giant plant response rating: 95
Wild oat (Avena fatua); [15]
  Plant response rating, Oat, Wild: 50
Wild oat (Avena fatua); [17]
  Plant response rating, Oat, Wild: 15
Wild oat (Avena fatua); [18]
  Plant response rating, Oat, Wild: 40
Wild oat (Avena fatua); [20]
  Plant response rating, Oat, Wild: 0
Wild oat (Avena fatua); [21]
  Plant response rating, Oat, Wild: 0
Wild oat (Avena fatua); [22]
  Oat, Wild plant response rating: 30
[6]; [15]
  Plant response rating, Morningglory: 90
[6]; [17]
  Plant response rating, Morningglory: 60
[6]; [18]
  Plant response rating, Morningglory: 80
[6]; [20]
  Plant response rating, Morningglory: 0
[6]; [21]
  Plant response rating, Morningglory: 15
[6]; [22]
  Morningglory plant response rating: 70
[7]; [15]
  Plant response rating, Bermudagrass: 100
[7]; [16]
  Plant response rating, Bermudagrass: 75
[7]; [17]
  Plant response rating, Bermudagrass: 95
[7]; [18]
  Plant response rating, Bermudagrass: 98
[7]; [19]
  Bermudagrass plant response rating: 98
[7]; [20]
  Plant response rating, Bermudagrass: 98
[7]; [21]
  Plant response rating, Bermudagrass: 100
[7]; [22]
  Bermudagrass plant response rating: 100
[8]; [15]
  Plant response rating, Cocklebur: 90
[8]; [16]
  Plant response rating, Cocklebur: 85
[8]; [17]
  Plant response rating, Cocklebur: 90
[8]; [18]
  Plant response rating, Cocklebur: 95
[8]; [19]
  Cocklebur plant response rating: 95
[8]; [20]
  Plant response rating, Cocklebur: 25
[8]; [21]
  Plant response rating, Cocklebur: 80
[8]; [22]
  Cocklebur plant response rating: 85
Corn (Zea mays); [15]
  Plant response rating, Corn: 0
Corn (Zea mays); [16]
  Plant response rating, Corn: 0
Corn (Zea mays); [17]
  Plant response rating, Corn: 10
Corn (Zea mays); [18]
  Plant response rating, Corn: 10
Corn (Zea mays); [19]
  Corn plant response rating: 15
Corn (Zea mays); [20]
  Plant response rating, Corn: 0
Corn (Zea mays); [21]
  Plant response rating, Corn: 0
Corn (Zea mays); [22]
  Corn plant response rating: 0
[9]; [15]
  Plant response rating, Johnsongrass: 20
[9]; [17]
  Plant response rating, Johnsongrass: 35
[9]; [18]
  Plant response rating, Johnsongrass: 35
[9]; [19]
  Johnsongrass plant response rating: 40
[9]; [20]
  Plant response rating, Johnsongrass: 0
[9]; [21]
  Plant response rating, Johnsongrass: 0
[9]; [22]
  Johnsongrass plant response rating: 0
Soybean (Glycine max); [15]
  Plant response rating, Soybean: 75
Soybean (Glycine max); [17]
  Plant response rating, Soybean: 98
Soybean (Glycine max); [18]
  Plant response rating, Soybean: 98
Soybean (Glycine max); [20]
  Plant response rating, Soybean: 60
Soybean (Glycine max); [21]
  Plant response rating, Soybean: 60
Soybean (Glycine max); [22]
  Soybean plant response rating: 65
Kochia (Kochia scoparia); 62 g ai/ha, 13 to 15 days
  Plant response rating, Kochia: 80
Kochia (Kochia scoparia); [11]
  Plant response rating, Kochia: 95
Kochia (Kochia scoparia); 250 g ai/ha, scale 0 to 100
  Kochia plant response rating: 98
[10]; [15]
  Plant response rating, Blackgrass: 30
[10]; [16]
  Plant response rating, Blackgrass: 10
[10]; [17]
  Plant response rating, Blackgrass: 15
[10]; [18]
  Plant response rating, Blackgrass: 30
[10]; [19]
  Blackgrass plant response rating: 30
[10]; [20]
  Plant response rating, Blackgrass: 0
[10]; [21]
  Plant response rating, Blackgrass: 0
[10]; [22]
  Blackgrass plant response rating: 10
